# Values of other authors in patent US20030003131A1, “Method for manufacture of free-flowing powder containing water-dispersible sterols” (priority 2001, published 2003).
# Like-named read-outs stand apart in the source and are kept apart here.
# Tests used:
# [1] = test system: cholesterol absorption
# [2] = test system: serum cholesterol
# [3] = test system: LDL cholesterol; conditions: 2.8 g sitostanol/day given as sitostanol ester in margarine
# [4] = test system: cholesterol absorption; conditions: oil-free delivery system with emulsifier
compound,measurement,setting,value
neomycin,effect on cholesterol absorption,[1]; orally administered,reduces cholesterol absorption effectively
CC[C@H](CC[C@@H](C)[C@H]1CC[C@H]2[C@@H]3CC=C4C[C@@H](O)CC[C@]4(C)[C@H]3CC[C@]12C)C(C)C [sitosterol],decrease of serum cholesterol levels,"[2]; 3-9 g/day of powdered sitosterol, dose-response study",12%
same,reduction of serum cholesterol,[2]; doses of 5-18 g sitosterol/day,16-20%
sitostanol ester,reduction of LDL cholesterol,[3],16%
same,less effective at reducing cholesterol absorption compared to the unesterified sterol,"[1]; humans, ester dissolved in dietary fat",21%
CC[C@H](CC[C@@H](C)[C@H]1CC[C@H]2[C@@H]3CC[C@H]4C[C@@H](O)CC[C@]4(C)[C@H]3CC[C@]12C)C(C)C [sitostanol],reduction of serum cholesterol,"[2]; 1.5 g/day, subjects with severe hypercholesterolemia",15%
same,effect on serum cholesterol,"[2]; 3 g/day, subjects with moderate hypercholesterolemia",no effect
same,reduction of cholesterol absorption,[4],≤ 37%
